According to paper PMC5964538, “Prevention of Cyclophosphamide-Induced Immunosuppression in Mice with the Antimicrobial Peptide Sublancin” (Journal of Immunology Research, 2018):
Counter-ions that a name gives are not always drawn.

Legend:
[1] = In vivo fluorescence imaging (biodistribution after oral dose); set-up: species or system BALB/c mice
Protocol: To observe the biodistribution of sublancin in vivo, sublancin was labeled with the near-infrared dye Cy7 monoreactive NHS ester (Invitrogen, CA, USA). Female BALB/c mice of 6–8 weeks old were given an oral dose of 100 μL Cy7-stained sublancin or free Cy7. At the indicated time points (0 h, 30 min, 2 h, 6 h, 12 h, 24 h, and 48 h), mice were anesthetized with 2.5% isoflurane and then placed in the in vivo Imaging System (FXPro Kodak). The excitation and emission bandpass filter was 730 nm and 790 nm, respectively. Fluorescence signals were collected by Carestream Molecular Imaging Software. At 12 h, mice were euthanized and the ex vivo optical images of the intestine, heart, liver, spleen, lung, and kidney were recorded using the same system.

[2] = Peripheral hemogram analysis in cyclophosphamide-treated mice; assay type: in vivo, BALB/c mice; conditions: gavage 10.0 mg/kg for 7 days, compared with the NC treatment (so in the source), n = 6
TNF-α mRNA = assay: TNF-α gene expression in peritoneal macrophages after oral administration (real-time PCR); assay type: in vivo, BALB/c mice; conditions: oral 2.5 mg/kg BW/d for 7 days, vs control, P < 0.05, n = 6
IL-1β mRNA = assay: IL-1β gene expression in peritoneal macrophages after oral administration (real-time PCR); assay type: in vivo, BALB/c mice; conditions: oral 2.5 mg/kg BW/d for 7 days, vs control, P < 0.05, n = 6
IL-6 mRNA = assay: IL-6 gene expression in peritoneal macrophages after oral administration (real-time PCR); assay type: in vivo, BALB/c mice; conditions: oral 2.5 mg/kg BW/d for 7 days, vs control, P < 0.05, n = 6

| Fluorescence in the excised intestine (ex vivo images) ([1]; 12 h after gavage) | Fluorescent signal in the heart, liver, spleen, lung, and kidney (ex vivo images) ([1]; 12 h after gavage) | Presence in the intestine (in vivo fluorescence) ([1]; oral dose of 100 μL, twelve hours after administration) | Fluorescent signal in vivo ([1]; oral dose of 100 μL, within 6 h) | SMILES | HGB [2] | Number of RBC [2] | Number of WBC [2] | Number of platelets [2] | Gene expression level of TNF-α in peritoneal macrophages (TNF-α mRNA) | Gene expression level of IL-1β in peritoneal macrophages (IL-1β mRNA) | Gene expression level of IL-6 in peritoneal macrophages (IL-6 mRNA) |
| --- | --- | --- | --- | --- | --- | --- | --- | --- | --- | --- | --- |
| only very little | Almost no fluorescent signal | most of the free Cy7 had disappeared | weak fluorescent signals | CCN1C(=CC=CC=CC=CC2=[N+](CCCCCC(=O)O)c3ccc(S(=O)(=O)O)cc3C2(C)C)C(C)(C)c2cc(S(=O)(=O)[O-])ccc21 [free Cy7] |  |  |  |  |  |  |  |
|  |  |  |  | c1ccc([C@H]2CN3CCSC3=N2)cc1 [levamisole hydrochloride] | higher | higher | higher | higher | higher than that in the control group | higher than that in the control group | higher than that in the control group |
